These results are taken from the supplement of paper PMC10307832.

Assay in all cases: relative viability (nuclei count vs DMSO), 5 days (fraction); higher = more cells survive
Compound in test [1]: COC1=CC=C(C=C1)CN2C=CC3=C2C=C(C=C3)C(=O)NO
The method in brief:
(§1)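 Viability was defined as treated-well nuclei divided by vehicle-well nuclei, with the median taken over replicate plates. Cells from lung cancer lines sat overnight at 37 °C in 1536-well plates, received five √10-spaced library-drug doses by pinning on vehicle-anchored plates, and grew 5 days without medium change before one-step fixation, permeabilisation and Hoechst staining, 4× imaging and MetaXpress nuclear counts. Only plates with control CV under 25% and at least one doubling were kept.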

Compound in another test: C[C@]1(c2nc3c(C(N)=O)cccc3[nH]2)CCCN1 [Veliparib]
The method in brief:
as §1

Compound in test [2]: COC1=CC=C(C=C1)CN2C=CC3=C2C=C(C=C3)C(=O)NO + Cc1nc(NC(=O)N2CCC[C@H]2C(N)=O)sc1-c1ccnc(C(C)(C)C(F)(F)F)c1 [Alpelisib] (partner 2 µM)
In outline: (§2)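 For relative viability, nuclei counts in treated wells were divided by those in vehicle wells. Lung cancer cell lines had been pin-tool dosed in 1536-well plates the day after seeding and cultured for 5 days, then fixed and stained in one step (final 0.05% Triton X-100, 1% formaldehyde, 1 ug/ml Hoechst) and imaged at 4×. Doses were one drug alone or a fixed anchor-drug dose plus five library-drug doses (not always all listed) in √10 steps, and values are duplicate-plate medians.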

Compound in the test “Veliparib + Pemetrexed”: C[C@]1(c2nc3c(C(N)=O)cccc3[nH]2)CCCN1 [Veliparib] + Nc1nc2[nH]cc(CCc3ccc(C(=O)N[C@@H](CCC(=O)O)C(=O)O)cc3)c2c(=O)[nH]1 [Pemetrexed] (partner 0.2 µM)
The method in brief:
as §2

On to PC-3 [JPC-3], for which the relative viability in test [1] (0.08 µM) stood at 1; in test [1] (0.253 µM), 1.03; in test [1] (0.8 µM) it was 1.11; in test [1] (2.53 µM) it was 1.08; in test [1] (8 µM), 0.968; with Veliparib (0.02 µM), 1. Moreover, the relative viability came to 0.968 in the test with Veliparib (0.06325 µM); 1.05 in the test with Veliparib (0.2 µM); 1.04 in the test with Veliparib (0.6325 µM); 1.06 with Veliparib (2 µM); 1.02 in test [2] (first compound 0.08 µM); 1.02 in test [2] (first compound 0.253 µM). In addition, the relative viability in test [2] (first compound 0.8 µM) worked out at 1.01; in test [2] (first compound 2.53 µM), 1.13; in test [2] (first compound 8 µM), 1.02; with Veliparib + Pemetrexed (first compound 0.02 µM), 1.01; with Veliparib + Pemetrexed (first compound 0.2 µM), 1.33; with Veliparib + Pemetrexed (first compound 0.6325 µM) it was 1.28. For the same cell line, the relative viability with Veliparib + Pemetrexed (first compound 2 µM) came to 1.08.
Consider PC-14, for which the relative viability in test [1] (0.08 µM) came out at 0.84; in test [1] (0.253 µM), 0.939; in test [1] (0.8 µM), 0.998; in test [1] (2.53 µM), 1.01; in test [1] (8 µM), 0.904; in the test with Veliparib (0.02 µM), 0.805. In addition, the relative viability with Veliparib (0.06325 µM) is 0.936; with Veliparib (0.2 µM) it was 0.974; with Veliparib (0.6325 µM) it was 0.955; with Veliparib (2 µM), 0.993; in test [2] (first compound 0.08 µM) it was 0.883; in test [2] (first compound 0.253 µM), 0.856. Further, the relative viability is 0.96 in test [2] (first compound 0.8 µM); 1.02 in test [2] (first compound 2.53 µM); 0.985 in test [2] (first compound 8 µM); 0.13 in the test with Veliparib + Pemetrexed (first compound 0.06325 µM); 0.168 in the test with Veliparib + Pemetrexed (first compound 0.2 µM); 0.143 with Veliparib + Pemetrexed (first compound 0.6325 µM). Besides, in the test with Veliparib + Pemetrexed (first compound 2 µM), the relative viability is 0.134.
Take RERF-LC-KJ: the relative viability was determined as 0.956 in test [1] (0.08 µM); 1.03 in test [1] (0.253 µM); 0.984 in test [1] (0.8 µM); 1.03 in test [1] (2.53 µM); 0.969 in test [1] (8 µM); 0.964 with Veliparib (0.02 µM). Further, the relative viability in the test with Veliparib (0.06325 µM) came out at 0.939; in the test with Veliparib (0.2 µM), 1.01; with Veliparib (0.6325 µM), 0.938; with Veliparib (2 µM), 1.01; in test [2] (first compound 0.08 µM) it was 0.765; in test [2] (first compound 0.253 µM), 0.796. Moreover, the relative viability stood at 0.83 in test [2] (first compound 0.8 µM); 0.95 in test [2] (first compound 2.53 µM); 0.83 in test [2] (first compound 8 µM); 0.43 in the test with Veliparib + Pemetrexed (first compound 0.02 µM); 0.454 with Veliparib + Pemetrexed (first compound 0.06325 µM); 0.505 with Veliparib + Pemetrexed (first compound 0.2 µM). Moreover, the relative viability in the test with Veliparib + Pemetrexed (first compound 0.6325 µM) was 0.462; with Veliparib + Pemetrexed (first compound 2 µM), 0.464.
For SK-LU-1, the relative viability in test [1] (0.08 µM) amounted to 0.974; in test [1] (0.253 µM), 0.997; in test [1] (0.8 µM), 1.02; in test [1] (2.53 µM) it was 1.04; in test [1] (8 µM), 0.966; with Veliparib (0.02 µM), 1.04. Moreover, the relative viability stood at 1.06 in the test with Veliparib (0.06325 µM); 1.06 with Veliparib (0.2 µM); 0.98 in the test with Veliparib (0.6325 µM); 1.01 in the test with Veliparib (2 µM); 1.01 in test [2] (first compound 0.08 µM); 1.04 in test [2] (first compound 0.253 µM). In addition, the relative viability stood at 1.11 in test [2] (first compound 0.8 µM); 1.11 in test [2] (first compound 2.53 µM); 0.81 in test [2] (first compound 8 µM); 0.963 in the test with Veliparib + Pemetrexed (first compound 0.02 µM); 1.03 in the test with Veliparib + Pemetrexed (first compound 0.06325 µM); 1.15 in the test with Veliparib + Pemetrexed (first compound 0.2 µM). The relative viability in the test with Veliparib + Pemetrexed (first compound 0.6325 µM) worked out at 0.92; with Veliparib + Pemetrexed (first compound 2 µM), 0.981.
Consider SK-MES-1, for which the relative viability is 1.07 in test [1] (0.08 µM); 1.02 in test [1] (0.253 µM); 0.988 in test [1] (0.8 µM); 1.03 in test [1] (2.53 µM); 0.997 in test [1] (8 µM); 1.03 with Veliparib (0.02 µM). For the same cell line, the relative viability with Veliparib (0.06325 µM) came to 0.939; in the test with Veliparib (0.2 µM), 0.977; with Veliparib (0.6325 µM) it was 0.961; with Veliparib (2 µM), 1.03; in test [2] (first compound 0.08 µM), 0.924; in test [2] (first compound 0.253 µM) it was 0.946. Moreover, the relative viability is 0.861 in test [2] (first compound 0.8 µM); 0.76 in test [2] (first compound 2.53 µM); 0.823 in test [2] (first compound 8 µM); 1 with Veliparib + Pemetrexed (first compound 0.02 µM); 0.901 with Veliparib + Pemetrexed (first compound 0.06325 µM); 0.946 with Veliparib + Pemetrexed (first compound 0.2 µM). The relative viability turned out to be 0.901 with Veliparib + Pemetrexed (first compound 0.6325 µM) and 0.995 with Veliparib + Pemetrexed (first compound 2 µM).
As to SW 1573, the relative viability in test [1] (0.253 µM) was 1.05; in test [1] (0.8 µM), 1.09; in test [1] (2.53 µM), 1.06; in test [1] (8 µM) it was 0.759; with Veliparib (0.02 µM), 0.857; in the test with Veliparib (0.06325 µM), 0.978. The relative viability in the test with Veliparib (0.2 µM) came out at 0.917; with Veliparib (0.6325 µM) it was 0.885; with Veliparib (2 µM), 0.922; in test [2] (first compound 0.253 µM) it was 0.824; in test [2] (first compound 0.8 µM), 0.734; in test [2] (first compound 2.53 µM), 0.72. Also, the relative viability in test [2] (first compound 8 µM) was determined as 0.787; with Veliparib + Pemetrexed (first compound 0.06325 µM), 0.721; with Veliparib + Pemetrexed (first compound 0.2 µM) it was 0.758; with Veliparib + Pemetrexed (first compound 0.6325 µM), 0.768; in the test with Veliparib + Pemetrexed (first compound 2 µM) it was 0.86.
Take UMC-11: the relative viability was found to be 0.711 in test [1] (0.08 µM); 0.965 in test [1] (0.253 µM); 1.02 in test [1] (0.8 µM); 0.907 in test [1] (2.53 µM); 0.964 in test [1] (8 µM); 1.09 in the test with Veliparib (0.02 µM). Moreover, the relative viability with Veliparib (0.06325 µM) turned out to be 0.997; with Veliparib (0.2 µM), 0.964; with Veliparib (0.6325 µM), 0.926; with Veliparib (2 µM) it was 0.983; in test [2] (first compound 0.08 µM), 0.526; in test [2] (first compound 0.253 µM) it was 0.986. The relative viability in test [2] (first compound 0.8 µM) came out at 0.92; in test [2] (first compound 2.53 µM), 1.12; in test [2] (first compound 8 µM), 1.05; in the test with Veliparib + Pemetrexed (first compound 0.02 µM), 0.931; in the test with Veliparib + Pemetrexed (first compound 0.06325 µM), 0.749; in the test with Veliparib + Pemetrexed (first compound 0.2 µM), 0.878. Moreover, the figures for the relative viability with Veliparib + Pemetrexed (first compound 0.6325 µM) and with Veliparib + Pemetrexed (first compound 2 µM) were 0.804 and 0.759, respectively.
